For data set [1] the following is noted: 298.15 K; 101.33 kPa; Liquid; Vibrating tube method.
Data set [2] can be described thus: excess molar enthalpy (molar enthalpy of mixing); xn = mol fraction of the nth substance listed. The following applies: 298.15 K, 101.33 kPa, Liquid, Flow calorimetry.

± gives the expanded uncertainty stated by the source.

As usually defined, the mass density is mass per unit of volume. As to `CCC(C)CC` [3-methylpentane], the mass density in data set [1] is reported as 660.3 ± 0.41 kg/m3.
`CCC(C)CC` [3-methylpentane] + COC(C)(C)C: the excess molar enthalpy in data set [2] (x2 = 0.0499) is 0.0137 ± 0.000382 kcal/mol; in data set [2] (x2 = 0.0999) it was 0.0259 ± 0.000502 kcal/mol; in data set [2] (x2 = 0.1501), 0.0382 ± 0.000621 kcal/mol; in data set [2] (x2 = 0.2) it was 0.0482 ± 0.000717 kcal/mol; in data set [2] (x2 = 0.2495), 0.0559 ± 0.000789 kcal/mol; in data set [2] (x2 = 0.3004) it was 0.0629 ± 0.00086 kcal/mol. Also, the excess molar enthalpy worked out at 0.0683 ± 0.000932 kcal/mol in data set [2] (x2 = 0.3502); 0.072 ± 0.000956 kcal/mol in data set [2] (x2 = 0.3999); 0.0745 ± 0.00098 kcal/mol in data set [2] (x2 = 0.4505); 0.0752 ± 0.001 kcal/mol in data set [2] (x2 = 0.4997); 0.0741 ± 0.00098 kcal/mol in data set [2] (x2 = 0.55); 0.0717 ± 0.000956 kcal/mol in data set [2] (x2 = 0.5996). Also, the excess molar enthalpy in data set [2] (x2 = 0.6502) was 0.0684 ± 0.000932 kcal/mol; in data set [2] (x2 = 0.7003) it was 0.063 ± 0.00086 kcal/mol; in data set [2] (x2 = 0.75) it was 0.0561 ± 0.000813 kcal/mol; in data set [2] (x2 = 0.7999) it was 0.0476 ± 0.000717 kcal/mol; in data set [2] (x2 = 0.8501) it was 0.0377 ± 0.000621 kcal/mol; in data set [2] (x2 = 0.8999), 0.0263 ± 0.000502 kcal/mol. The excess molar enthalpy in data set [2] (x2 = 0.95) is 0.0128 ± 0.000359 kcal/mol.
For `CCCCCCCCCC` [decane], the mass density in data set [1] is 726.31 ± 0.42 kg/m3.
Regarding `CCCCCCCCCCCC` [dodecane], the mass density in data set [1] stood at 745.38 ± 0.42 kg/m3.
As for `COC(C)(C)C` [2-methoxy-2-methylpropane], the mass density in data set [1] was determined as 735.69 ± 0.4 kg/m3.
